Data published in patent US20110184006A1, “METHOD AND COMPOSITION FOR THERMALLY STABILIZING VITAMIN C WITHIN NANO LAYERS OF MONTMORILLONITE CLAY” (NATIONAL RESEARCH COUNCIL OF SRI LANKA, priority 2010, published 2011).

Assays:
[1] = Thermal stability: FTIR spectra after heating for 30 minutes; type: physicochemical
Protocol: Infrared (IR) spectroscopy was used to quantify samples. Nicolet 6700 FT-IR spectrophotometer was used to measure absorbance or transmittance value of samples. All samples were finely ground and mixed with fused KBr to form pellets in the measurements. Typical parameters included: scan range of 400-4000 cm^−1; resolution 4.00 cm^−1; and the number of scans were 32.
The FTIR spectra of the 0.5000 g calcium montmorillonite chelated with 0.2500 g of LAA heated at 100° C., 120° C., 140° C., 160° C., 180° C. and 200° C. for 30 minutes are shown in FIG. 10. As reference, the FTIR spectra of LAA at room temperature and after heating to 90, 120, 140, 160, 180 and 200° C. for 30 minutes are also shown in FIG. 10.
Further at 140° C., the structure of LAA is altered as the carbonyl stretch at 1750 cm^−1 was broader and the fingerprint region was changed.
First, 0.1000 g samples of the chelated clays were prepared as described in previous examples. Then to determine the thermal stability, 0.1000 g samples of 0.5000 g calcium montmorillonite chelated with 0.0500 g, 0.1000 g, 0.2500 g and 0.5000 g of LAA, were heated in an oven at 90° C. for 30 minutes. Pellets of the cooled samples were prepared with fused KBr and FTIR spectra of these samples were obtained. Reference spectra of the calcium montmorillonite chelated clays before heating were also obtained for comparison. […]

[2] = in blood plasma; cited from earlier work

## O=C1O[C@H]([C@@H](O)CO)C(O)=C1O [LAA, L-ascorbic acid]
[1]; 140° C., 30 minutes
  structure (FTIR) after heating at 140° C.: altered
[1]; heated 30 minutes at 90/100 to 200° C.
  change of structure (FTIR) as the temperature is increased: changes gradually as the temperature is increased until it is completely destroyed
[2]
  biological half-life: about 30 minutes
